Data as given in patent US9603878B2, “Probiotic and prebiotic compositions, and methods of use thereof for treatment and prevention of graft versus host disease” (Evelo Biosciences, Inc., priority 2014, dated 2017).

What was measured:
[1] = system: Tregs in the large intestine; conditions: germ-free mice and vancomycin-treated conventional mice; cited from earlier work
[2] = system: Lactobacillus johnsonii; assay: Sugar fermentation/growth in media lacking glucose (pH and optical density)
[3] = system: blautia; assay: as above
[4] = system: C57B1/6 female mice; conditions: mouse, in vivo
Procedure: The possibility that modification of the microbiome in a given physical location may influence the microbiome at other sites in the body (distal augmentation) was investigated. Seven week old C57B1/6 female mice were acclimatized for 7 days prior to the start of the study by daily handling and shuffling between cages. All mice were housed at three mice per cage in individually vented cages (Thoren, Hazleton, Pa.). At day 0, baseline fresh fecal pellets, and vaginal lavages with 100 μL of sterile double-distilled water were collected and immediately frozen at −80° C. for microbiome analysis. […] Water alone is not expected to influence the microbiome and acted as a negative control. […] The impact of oral vancomycin is therefore expected to be limited to the gastrointestinal tract such that microbiome changes elsewhere in the body (e.g. vagina) would be attributable to distal augmentation. At day 6, fresh fecal pellets and vaginal lavages with 100 μL of sterile double-distilled water were collected and immediately stored at −80° C. for microbiome analysis.
Isolation and sequencing of microbial DNA from the stool and vaginal samples was performed by DNA Genotek (Ottawa, ON, Canada). The V3-V4 region of the 16S ribosomal subunit was amplified with custom PCR primers and sequenced on an Illumina MiSeq to a minimum acceptable read depth of 25,000 sequences per sample. […]

[5] = system: mice with GVHD; assay: Xylose in drinking water in experimental GVHD model after BMT; type: in vivo, mouse
[6] = system: normal mice; assay: Mouse study: gut microbiome after xylose treatment; type: in vivo
[7] = system: healthy, adult volunteers; conditions: human, in vivo
Procedure: D-xylose is a carbon source generally preferred by anaerobic bacteria. […] A parallel, double-blind, 5 cohort escalation food safety study was conducted to examine D-xylose in normal human volunteers. The study was a double-blind, single-center, parallel group study designed to evaluate the tolerability and potential microbiome changes induced by ingestion of D-xylose at 5 different amounts in healthy, adult volunteers enrolled at 1 study center in the United States (US).
Subjects were screened for eligibility within 21 days prior to the first planned ingestion of study sweetener on Day 1 (Baseline). […]
Subjects returned to the study center weekly on Days 8, 15, 22, and 28 for ingestion, tolerability, and compliance evaluations. Safety was evaluated on a continual basis through adverse events (AE) monitoring, clinical laboratory measurements, vital sign monitoring, physical examinations, electrocardiograms (ECGs), telephone follow-up, and electronic subject ingestion diaries. Stool was collected pre-ingestion and at pre-specified time points, and post-ingestion samples were evaluated for changes in the gut microbiome compared with Baseline for all subjects. […]
Safety was evaluated on a continual basis through AE monitoring, clinical laboratory measurements, vital sign monitoring, physical examinations, ECGs, telephone follow-up, and electronic subject ingestion diaries. […]

[8] = system: gut microbiome; assay: Normal human volunteer study of D-xylose: changes in the gut microbiome (stool 16S); type: in vivo; conditions: for alpha diversity of the gut microbiome: over time on study
[9] = system: healthy, adult volunteers; assay: Normal human volunteer study of D-xylose: CRP, serum cytokines, T-cell markers; type: in vivo
From the text: Blood was collected at pre-specified pre- and post-ingestion time points to evaluate C-reactive protein (CRP), serum cytokines (tumor necrosis factor alpha [TNF-α], interleukin [IL]-2, IL-6, interferon gamma [IFN-γ], and IL-10), and T-cell markers CD3, CD4, CD8, CD25, and FOXP3. Plasma was also stored and may be tested for biomarkers and/or metabolic markers for up to 7 years.
Summary statistics (n, mean, standard deviation, median, minimum, and maximum) were presented for serum concentrations of CRP, flow cytometry T-cell markers (CD3, CD4, CD8, CD25, and FOXP3), and cytokines (TNF-α, IL-2, IL-6, IFN-γ, and IL-10) as per their nominal time points.

[10] = system: tumors; conditions: oral administration; anti-PD-1 / anti-CTLA-4 antibody therapy; cited from earlier work

With `CC(=O)O` [acetate] as the compound, how does the “numbers of Tregs in the large intestine” value [1] read?
The value was “restored normal numbers of Tregs in the large intestine”.

Which “numbers of Tregs in the large intestine” value [1] does the source give for `CCC(=O)O` [propionate] here?
Its value is “restored normal numbers of Tregs in the large intestine”.

Which results are given for `C[C@H](O)[C@H](O)[C@@H](O)[C@@H](O)C=O` [rhamnose]?
augmentation / fermentation by lactobacillus [2]: not lactobacillus; augmentation / fermentation by blautia [3]: specifically augments blautia

For `CN[C@H](CC(C)C)C(=O)N[C@H]1C(=O)N[C@@H](CC(N)=O)C(=O)N[C@H]2C(=O)N[C@H]3C(=O)N[C@H](C(=O)N[C@H](C(=O)O)c4cc(O)cc(O)c4-c4cc3ccc4O)[C@H](O)c3ccc(c(Cl)c3)Oc3cc2cc(c3O[C@@H]2O[C@H](CO)[C@@H](O)[C@H](O)[C@H]2O[C@H]2C[C@](C)(N)[C@H](O)[C@H](C)O2)Oc2ccc(cc2Cl)[C@H]1O` [vancomycin], which “impact on the microbiome of the gut (PCA, family level)” value [4] is on record?
Its value is “strong impact on the microbiome of the gut”.

And the “impact on the vaginal microbiome (PCA, family level)” value [4]?
Its value is “showed an overall difference between the PBS and oral vancomycin groups”.

With `O=C[C@H](O)[C@@H](O)[C@H](O)CO` [xylose, D-xylose] as the compound, how does the “survival of mice with GVHD” value ([5]; long-term administration) read?
The value was “led to improved survival of mice with GVHD”.

And the “Blautia in the intestinal flora” value ([5]; xylose in drinking water, day 14 after BMT)?
The value was “lead to an expansion of Blautia in the intestinal flora”.

And the “augmentation / fermentation by lactobacillus” value [2]?
Its value is “not lactobacillus”.

And the “shifts in the gut microbiome” value [6]?
Its value is “did not cause major shifts in the gut microbiome but showed some differences at the family level”.

What about the “augmentation / fermentation by blautia” value [3] of the same compound?
The value was “specifically augments blautia”.

What about the “SAEs, severe AEs, deaths” value [7] of the same compound?
Its value is “No SAEs, severe AEs, or subject deaths were reported”.

And the “gut microbiome community composition over time” value ([8]; regardless of ingestion amount)?
Its value is “no significant changes in community composition”.

What about the “alpha diversity of the gut microbiome” value ([8]; regardless of ingestion amount) of the same compound?
The value was “no major shifts in the microbiome alpha diversity”.

And the “alpha diversity of the gut microbiome” value ([8]; regardless of ingestion amount, listed as D-xylose)?
Its value is “no apparent significant impact on the intra-sample alpha diversity of the gut microbiome”.

What about the “Chao diversity index over time” value ([8]; xylose TID at 1, 2, 8, 12.5 or 15 grams) of the same compound?
Its value is “overall decrease in the Chao diversity index over time”.

And the “total T-cells and T-cell subsets over time” value ([9]; any ingestion amount)?
The value was “No consistent or clinically meaningful changes over time in total T-cells or any T-cell subsets”.

And the “subjects with normal serum CRP at Baseline and at least 1 post-ingestion CRP value >2.9 mg/L” value ([9]; cohorts combined)?
Its value is 8.3%.

What about the “serum cytokines (TNF-α, IL-2, IL-6, IFN-γ, IL-10) over time” value ([9]; most data points BLQ) of the same compound?
Its value is “did not indicate any consistent or clinically meaningful changes over time”.

For Bacteroides, which “responsiveness to checkpoint inhibitor therapy in cancer” value [10] is on record?
The value was “increases the responsiveness”.

For Bifidobacterium, which “responsiveness to checkpoint inhibitor therapy in cancer” value [10] is on record?
The value was “increases the responsiveness”.
